Measurements taken from patent EP0335545B2, “Pharmaceutical formulations for parenteral use” (UNIVERSITY OF FLORIDA, priority 1988, dated 1989).
In brackets after ≈: the same amount, converted by molar mass.

Tests used:
physchem [1] = assay: physchem
Method: For comparison, the solubilities of the drugs in water were also determined.
• Wavelength: 245 nm • Column: Waters µBondapak CN, 3.9 mm (id.) x 30 cm • Mobile phase: acetonitrile, acetic acid, water (60:1:39) containing 0.1% 1-hexasulfonic acid, sodium salt • Flow rate: 2.00 mL/min.
• Wavelength: 263 nm • Column: ASI C18, 10 µm, 3.9 mm (i.d.) x 30 cm • Mobile phase: acetonitrile, water (55:45) • Flow rate: 1.00 mL/min.
• Wavelength: 241 nm • Column: Waters µBondapak CN, 3.9 mm (i.d.) x 30 cm • Mobile phase: acetonitrile, water (6:4) • Flow rate: 2.00 mL/min.
• Wavelength: 280 nm • Column: ASI C18, 10 µm, 3.9 mm (i.d.) x 30 cm • Mobile phase: acetonitrile, water (55:45) • Flow rate: 2.00 mL/min.
• Wavelength: 248 nm • Column: Fisher Resolvex C18, 4.6 mm (i.d.) x 25 cm • Mobile phase: acetonitrile, water (6:4) • Flow rate: 1.50 mL/min.
• Wavelength: 248 nm • Column: Fisher Resolvex C18, 4.6 mm (i.d.) x 25 cm • Mobile phase: acetonitrile, water (7:3) • Flow rate: 2.00 mL/min.
• Wavelength: 253 nm • Column: Waters µBondapak CN, 3.9 mm (i.d.) x 30 cm • Mobile phase: acetonitrile, […], water (60:1:39) containing 0.1% 1-hexanesulfonic acid, sodium salt • Flow rate: 2.00 mL/min.
• Wavelength 308 nm • Column: Fisher Resolvex C18, 4.6 mm (i.d.) x 25 cm • Mobile phase: methanol, acetic acid, water (50:1:49) containing 0.1% 1-octanesulfonic acid, sodium salt • Flow rate: 2.00 mL/min.
• Wavelength: 240 nm • Column: Fisher Resolvex C18, 4.6 mm (i.d.) x 25 cm • Mobile phase: acetonitrile, water (6:4) • Flow rate: 1.50 mL/min.
• Wavelength: 240 nm • Column: Fisher Resolvex C18, 4.6 mm (i.d.) x 25 cm Mobile phase: acetonitrile, water (7:3) • Flow rate: 2.00 mL/min.
• Wavelength: 241 nm • Column: Fisher Resolvex C18, 4.6 mm (i.d.) x 25 cm • Mobile phase: acetonitrile, water (7:3) • Flow rate: 2.00 mL/min.
• Wavelength: 230 nm • Column: Waters µBondapak CN, 3.9 mm (i.d.) x 30 cm • Mobile phase: acetonitrile, water (35:65) • Flow rate: 2.00 mL/min.
• Wavelength: 258 nm • Column: Fisher Resolvex C18, 4.6 mm (i.d.) x 25 cm • Mobile phase: acetonitrile, water (55:45) • Flow rate: 2.00 mL/min.
• Wavelength: 325 nm • Column: Waters µBondapak C18, 10 µm, 3.9 mm (i.d.) x 30 cm • Mobile phase: acetonitrile, water (55:45) • Flow rate: 1.00 mL/min.

[2] = Phase-solubility experiments in aqueous HPCD at 30.0±0.2°C (chlorambucil, lomustine, melphalan)
Method: (§1) After equilibration in a 30.0±0.2°C water bath in the dark for up to 72 hours, aliquots of the mixtures were filtered through 0.45 Mm membrane filters, diluted and the drug concentration determined by HPLC or UV methods.

physchem [3] = assay: physchem; remark: listed apart in the source
Method: as §1

[4] = Solubilizing effect of a 50% w/w solution of HPCD on steroids and CDS; conditions: 50% w/w aqueous hpcd
Method: An excess of E2-CDS was sonicated with an aqueous solution of the appropriate solubilizing agent for 30 minutes. The suspension was then centrifuged, filtered through 0.45 µm polyvinylidene difluoride (Millex-HV4, Millipore®) membranes and analyzed by HPLC. […] An estimation of the bulk equilibrium constant was obtained by correlating the millimolarity of E2-CDS solubilized and the millimolarity of the cyclodextrin added. This latter value was calculated using the average molecular weight of the isomeric mixture determined by mass spectroscopy. The solubilizing effect of a 50% w/w solution of HPCD was also examined for a series of steroids and dihydropyridines (CDS). These studies were carried out in a similar manner to those previously described.
For the CDS, the wavelength monitored was 360 nm while for estrogen 220 nm was used.
Separation was achieved on an Analytical Sciences, Inc. (ASI) 10 µm particle size, C18 reversed phase 30 cm x 3.9 mm i.d. analytical column. The flow rate was 1 mL/min, the compounds were detected at 360 nm and in all determinations the temperature was ambient. […] For the GABA-CDS1, a mobile phase consisting of 50:1:1:48 of the same components was required. […] Other compounds were assayed spectrophotometrically.

[5] = Preparation of solid freeze-dried HPCD complexes: degree of incorporation; type: physicochemical; conditions: freeze-dried complex from 50% w/w HPCD (ASDS 5.1)
Method: An excess of E2-CDS was added and the solution then was purged with helium. The resulting suspension was then sonicated for 30 minutes, filtered through a glass filter (ASTM 10-15M, Pyrex No. 36060) and freeze-dried overnight. Best results were obtained by hard-freezing the aqueous solution of the E2-CDS/HPCD complex for at least 10 hours before lyophilization. The degree of complex formation was determined by dissolving a small amount of the dry complex in methanol and then analyzing by high pressure liquid chromatography (HPLC).
An excess of E2-CDS or other CDS was added to a 50% w/w solution of HPCD. The suspension was sonicated for 30 minutes, filtered through 0.45 µm PVDF membranes and freeze-dried. The degree of incorporation was determined either spectrophotometrically or by HPLC. In some cases, the effect of solubilizing agents on the degree of incorporation was examined. This involved adding small amounts of polyoxyethylene 20 cetyl ether (Brij), polyoxyethylene sorbitan monooleate (Tween 80) or ethanol to the aqueous solution prior to lyophilization.
The retention time was 5.2 min. Other compounds were assayed spectrophotometrically.
The solution was degassed and the suspension was sonicated for 30 minutes, after which it was filtered and the filtrate was lyophilized. The dried filtrate contained 65.6 mg testosterone propionate or 29.6 mg T-CDS1 per gram of cyclodextrin complex. Compounds were analyzed for decomposition by thin-layer chromatography and ultraviolet absorption.

C#C[C@]1(O)CC[C@H]2[C@@H]3CCc4cc(OC)ccc4[C@H]3CC[C@@]21C [Ethynylestradiol 3-methyl ether]
Increase in Solubility (HPCD/water) (physchem [1]): ∼13,000 | solubility (physchem [1]; 25% w/v hpcd): 7130 µg/mL (≈ 23 mM) | solubility (physchem [1]; 50% w/w hpcd): 13300 µg/mL (≈ 42.8 mM) | solubility (physchem [1]; water): 1 µg/mL (≈ 0.00322 mM)

O=NN(CCCl)C(=O)NC1CCCCC1 [Lomustine]
solubility ([2]; 1% w/w aqueous hpcd): 380 µg/mL (≈ 1.63 mM) | solubility ([2]; 5% w/w aqueous hpcd): 1680 µg/mL (≈ 7.19 mM) | solubility ([2]; 10% w/w aqueous hpcd): 3330 µg/mL (≈ 14.2 mM) | solubility ([2]; 15% w/w aqueous hpcd): 6260 µg/mL (≈ 26.8 mM) | solubility ([2]; 20% w/v aqueous hpcd): 8440 µg/mL (≈ 36.1 mM) | solubility ([2]; 20% w/w aqueous hpcd): 8440 µg/mL (≈ 36.1 mM) | increase: water/25% HPCD ([2]; 25% HPCD versus water): 49.44 | solubility ([2]; 25% w/v aqueous hpcd): 8900 µg/mL (≈ 38.1 mM) | solubility ([2]; 25% w/w aqueous hpcd): 8900 µg/mL (≈ 38.1 mM) | solubility at 4 h ([2]; 50% w/w aqueous hpcd): ~12000 µg/mL (≈ 51.3 mM) | degradation during the solubility experiments ([2]; aqueous HPCD, 30°): Some degradation occurred | solubility ([2]; water): 180 µg/mL (≈ 0.77 mM) | solubility ([2]; water (0% hpcd)): 180 µg/mL (≈ 0.77 mM)

CN1CCN=C(c2ccccc2)c2cc(Cl)ccc21 [Medazepam]
solubility (physchem [1]; 50% w/w hpcd, pH 7.5): 8300 µg/mL (≈ 30.7 mM) | solubility (physchem [1]; water): 10 µg/mL (≈ 0.0369 mM)

N[C@@H](Cc1ccc(N(CCCl)CCCl)cc1)C(=O)O [Melphalan]
solubility (physchem [3]; 1% aqueous hpcd): 4160 µg/mL (≈ 13.6 mM) | solubility (physchem [3]; 2% aqueous hpcd): 4300 µg/mL (≈ 14.1 mM) | solubility (physchem [3]; 3% aqueous hpcd): 6240 µg/mL (≈ 20.4 mM) | solubility (physchem [3]; 4% aqueous hpcd): 7140 µg/mL (≈ 23.4 mM) | solubility (physchem [3]; 5% aqueous hpcd): 7200 µg/mL (≈ 23.6 mM) | solubility (physchem [3]; 7% aqueous hpcd): 10500 µg/mL (≈ 34.4 mM) | solubility (physchem [3]; 10% aqueous hpcd): 13400 µg/mL (≈ 43.8 mM) | solubility (physchem [3]; 15% aqueous hpcd): 17600 µg/mL (≈ 57.8 mM) | solubility (physchem [3]; 20% aqueous hpcd): 24800 µg/mL (≈ 81.1 mM) | solubility (physchem [3]; 25% aqueous hpcd): 31400 µg/mL (≈ 103 mM) | solubility at 4 h (physchem [3]; 50% aqueous hpcd): ~21900 µg/mL (≈ 71.8 mM) | solubility (physchem [3]; water): 1260 µg/mL (≈ 4.13 mM) | solubility (physchem [3]; water (0% hpcd)): 1260 µg/mL (≈ 4.13 mM)

CN(Cc1cnc2nc(N)nc(N)c2n1)c1ccc(C(=O)N[C@@H](CCC(=O)O)C(=O)O)cc1 [Methotrexate]
solubility (physchem [1]; 50% w/w hpcd, pH 7.6): 10000 µg/mL (≈ 22 mM) | solubility (physchem [1]; water): 45 µg/mL (≈ 0.099 mM)

C#C[C@]1(OC(C)=O)CC[C@H]2[C@@H]3CCC4=CC(=O)CC[C@@H]4[C@H]3CC[C@@]21C [Norethindrone acetate]
Increase in Solubility (HPCD/water) (physchem [1]): ∼97,500 | solubility (physchem [1]; 25% w/v hpcd): 9410 µg/mL | solubility (physchem [1]; 50% w/w hpcd): 19500 µg/mL | solubility (physchem [1]; water): 0.2 µg/mL

O=C1NC(=O)C(c2ccccc2)(c2ccccc2)N1 [Phenytoin]
Increase in Solubility (HPCD/water) (physchem [1]): ∼450 | solubility (physchem [1]; 50% w/w hpcd): 9300 µg/mL (≈ 36.9 mM) | solubility (physchem [1]; water): 20 µg/mL (≈ 0.0793 mM)

CCC(=O)O[C@H]1CC[C@H]2[C@@H]3CCC4=CC(=O)CC[C@]4(C)[C@H]3CC[C@]12C [Testosterone 17-Propionate]
solubility [4]: 38000 µg/mL (≈ 110 mM) | Amount of Drug in Dry Complex [5]: 65.6 mg/g

C[C@]12CC[C@H]3[C@@H](CCC4=CC(=O)CC[C@@]43C)[C@@H]1CC[C@@H]2O [Testosterone]
solubility [4]: 38000 µg/mL (≈ 132 mM)

Estradiol 17-Valerate
Amount of Drug in Dry Complex [5]: 23.5 mg/g
